Test results from US20180200331A1, “BST-2 AS A THERAPEUTIC TARGET AND DIAGNOSTIC MARKER FOR BREAST CANCER GROWTH AND METASTASIS” (University of Iowa Research Foundation, priority 2015, published 2018).

Columns and labels:
[1] = tested on: BST-2; test: shRNA knockdown of BST-2 in E0771 and 4T1 cells; format: cell-based, mouse; conditions: E0771 and 4T1 cells stably transduced
From the text: E0771 and 4T1 cells were stably transduced with a construct expressing LV-CMV-firefly luciferase or an empty vector construct using lipofectamine following the manufacturer's instructions (Life Technologies, Carlsbad, Calif., USA). Stable transfectants were then transduced with lentiviral particles carrying BST-2-targeting sh137: CCGGC […] (SEQ ID NO:3); sh413: […] TTCTCAAGCTTTTTG (SEQ ID NO:4); or a non-targeting shControl: […] (SEQ ID NO:5) using a previously described protocol. Stable cells were generated by selection with the appropriate drug. The short hairpin RNA (shRNA) constructs were purchased from Sigma-Aldrich (St Louis, Mo., USA) (SHCLND-NM_198095) and lentiviral particles were generated at the Gene Transfer Vector Core at the University of Iowa.
Cell monolayers were washed with PBS and treated with Versene (Life Technologies). […] Stained cells were quantified using a FACSCalibur flow cytometer (BD Biosciences, San Jose, Calif., USA). […] Fluorescence-activated cell sorting (FACS) data were analyzed by Flowjo software (TreeStar, Ashland, Oreg., USA). […]
Western blots were performed as previously described. […] Band detection and quantification were carried out with the Odyssey Infrared Imaging System (LI-COR Biosciences, Lincoln, Nebr., USA).

[2] = tested on: 4T1 cells; test: Orthotopic implantation of 4T1 cells in BALB/c mice; format: in vivo
Protocol: (§1) Five-week-old C57BL/6NCr and BALB/cAnNCr female mice were used. Mice were sacrificed when they became moribund. Tumor volume (TV) was calculated as: TV=0.5(length*width2). Tumor latency was calculated as the number of tumor-free injected mice/number of injected mice×100. To assess morbidity, the following clinical score ranking was used: (0) no abnormal clinical signs, (1) ruffled fur but lively, (2) ruffled fur, activity level slowing, sick, (3) ruffled fur, eyes squeezed shut, hunched, hardly moving, very sick, (4) moribund and (5) dead. Experiments involving mice were approved by the University of Iowa Animal Care and Use Committee (IACUC).
(§2) Prior to imaging, mice were anesthetized, weighed and injected intraperitoneally with D-luciferin. Mice were imaged using the Xenogen IVIS three dimensional optical imaging system (Caliper Life Sciences, Hopkinton, Mass., USA). Luciferase was quantified with Living Image Software (Caliper Life Sciences).

[3] = tested on: E0771 and 4T1 cells; test: BrdU assay; format: cell-based, mouse
Protocol: A total of 5,000 cells were plated in 96-well plates for 24 hours. Bromodeoxyuridine or 5-bromo-2′-deoxyuridine (BrdU) (Calbiochem, Billerica, Mass., USA) assay was carried out according to the manufacturer's instructions. Absorbance at 450 nm was read using a Tecan Infinite plate reader. In parallel, 150,000 cells were plated in 24-well plates for 24 hours. Cells were incubated with BrdU label (1:2000) for 20 hours, treated with a fixative/denaturing solution (30 minutes) and incubated with an anti-BrdU antibody (1:1000) and rat anti-mouse BST-2 antibody (1:200, eBioscience) for 1 hour at room temperature. Cells were washed and incubated with Alexa Fluor 594 anti-rat (Invitrogen, Waltham, Mass., USA) and Alexa Fluor 488 anti-mouse (Invitrogen) secondary antibodies for 30 minutes at room temperature. Cells were stained with 4′,6-diamidino-2-phenylindole (DAPI)-containing Vectashield (Vector Laboratories, Burlingame, Calif., USA) and imaged using a Zeiss 710 confocal microscope (Carl Zeiss, Oberkochen, Germany). Images were processed using Image J software. BrdU label, fixative/denaturing solution, and anti-BrdU antibody were from BrdU (Calbiochem) assay.

[4] = tested on: E0771 cells; test: Boyden chamber assay; format: cell-based, mouse; conditions: 20 hours
Protocol: The apical chamber of 24-well cell culture inserts (Merck Millipore, Billerica, Mass., USA) were seeded with previously starved sh137, sh413 or shControl transduced E0771 cells (150,000) in serum-free medium. Culture medium containing 30% FBS was added to the basal chamber of the unit and cells were allowed to migrate through the membranous barrier for 20 hours at 37° C. Non-migrated cells were washed off, migrated cells were fixed with 4% PFA for 5 minutes, washed twice with 1×PBS, permeabilized with 100% methanol for 25 minutes, labeled with Giemsa stain (for 15 minutes at room temperature) and imaged using a Nikon Eclipse Ti microscope adjusted with an X-cite series 120 LED fluorescence microscope light source and a Nikon digital sight camera. Images were processed using Image J software. Cells from five different fields were counted and averaged.

[5] = tested on: E0771 cells; test: Orthotopic implantation of E0771 cells in C57BL/6 mice; format: in vivo
Protocol: as §1, §2

sh413: BST-2-targeting shRNA (SEQ ID NO:4), delivered by lentiviral particles (CCGGGCTTGAGAATGAAGTCACGAACTCGAGTTCGTGACTTCATTCTCAAGCTTTTTG)
BST-2 expression [1]: more efficiently suppressed BST-2 | median overall survival (OS) ([2]; Kaplan-Meier): undefined | survival area under the curve (AUC) ([2]; Kaplan-Meier): 3,900 | number of tumors in intestine and mesentery ([2]; average of all mice): six | mammary tumor latency ([2]; compared to shControl cells): increased mammary tumor latency | tumor volume over time ([2]; compared to shControl tumors): significantly lower | mice survived to end of experiment ([2]; day 45): 14 out of 15 | incidence of metastases to the liver ([2]; mouse, in vivo): 46% | incidence of metastases to the lung ([2]; mouse, in vivo): 40% | mice spared of ascites and splenomegaly ([2]; mouse, in vivo): 14 out of 15 | average tumor mass ([2]; n=15, at necropsy): 0.37 g | cell proliferation (BrdU incorporation) [3]: no effect on cell proliferation | rate of cell migration (Boyden chamber) [4]: significantly reduced rate of cell migration | median overall survival (OS) ([5]; Kaplan-Meier): 23 days | survival area under the curve (AUC) ([5]; Kaplan-Meier): 2,679 | malignant ascites ([5]; n=10): prevented the development of malignant ascites
